Reference: US8895739B2, “Acylation of hindered amines and functionalized bis-peptides obtained thereby” (Temple University of the Commonwealth System of Higher …, priority 2008, dated 2014)

Experiments:
[1] = system: Huh7 cells; assay: cell penetration by fluorescence microscopy, Huh7; format: cell-based, human
Description: (§1) The effect of the sub-micromolar HDM2 binding bis-peptide 1 in cell-culture was thereafter evaluated. The cell-penetrating capability of two of the functionalized bis-peptides was first examined. […] Bis-peptide 1 was then incubated with both Huh7 cells and HepG2 (human liver hepatoblastoma cells) and imaged.

[2] = system: HepG2 cells; format: cell-based, human
Description: as §1

[3] = system: p53; settings: stated as known behaviour of HDM2 ligands; cited from earlier work

CC(C)CN1C(=O)[C@@H]2C[C@@]3(CN2C(=O)[C@@]12C[C@H]1C(=O)N(Cc4ccc(Cl)c(Cl)c4)[C@]4(C[C@@H]5C(=O)N[C@@H](CCc6ccccc6)C(=O)N5C4)C(=O)N1C2)NC(=O)[C@@H](CCCCNC(=S)Nc1ccc2c(c1)C(=O)OC21c2ccc(O)cc2Oc2cc(O)ccc21)NC3=O [Entry 1]
cellular uptake and distribution [1]: distribution of entry 1 throughout the cytoplasm and nucleus | cellular uptake and distribution [2]: distribution of entry 1 throughout the cytoplasm and nucleus

COc1ccc(C2=N[C@@H](c3ccc(Cl)cc3)[C@@H](c3ccc(Cl)cc3)N2C(=O)N2CCNC(=O)C2)c(OC(C)C)c1 [nutlin-3a]
effect on p53 levels [3]: increase in p53 levels

O=C1OC2(c3ccc(O)cc3Oc3cc(O)ccc32)c2ccccc21 [fluorescein, reference compound]
cellular uptake and distribution [1]: no visible uptake of fluorescence | cellular uptake and distribution [2]: no visible uptake of fluorescence

CC(C)CN1C(=O)[C@@H]2C[C@@]3(CN2C(=O)[C@@]12C[C@H]1C(=O)N(Cc4ccc5ccccc5c4)[C@]4(C[C@H]5C(=O)N[C@@H](Cc6ccccc6)C(=O)N5C4)C(=O)N1C2)NC(=O)[C@H](CCCCNC(=S)Nc1ccc2c(c1)C(=O)OC21c2ccc(O)cc2Oc2cc(O)ccc21)NC3=O [Entry 3]
cellular uptake ([1]; Huh7, 2 μM, 24 hours, fluorescence and confocal microscopy): Significant uptake
